Among the data in US20070275932A1, “Aryl, heteroaromatic and bicyclic aryl nitrone compounds, prodrugs and pharmaceutical compositions of the same to treat human disorders” (Renovis, Inc., priority 2003, published 2007) are EC50 values, retold here.

The structures appear in SMILES notation.

This test in a line: Free radical-scavenging/antioxidant assay (DPPH). Type of test: biochemical. The conditions noted are these: 50 μM DPPH in 80% methanol, absorbance at 520 nm, 24 h time point (steady state); read-out: EC50 (concentration at which a compound reduces by 50% the peak absorbance of DPPH at 520 nm). How it is done:
Nitrone compounds of the present invention were tested for their free-radical scavenging/antioxidant activity in an in vitro assay that is accepted by those skilled in the art as a model for conditions involving the generation of free radicals. The assay is based on a reaction between a free-radical donor, 2,2-diphenyl-1-picrylhydrazyl (DPPH), and a radical scavenger/antioxidant to be tested for free-radical scavenging activity. Upon donation of the free-radical electron to the purported radical scavenger, the peak visible absorbance of DPPH (515-520 nm) decreases so that optical density readings at this part of the visual spectrum reflect the progression of the following reaction: DPPH∩+AH→DPPH-H+A∩ where AH is a hypothetical radical scavenger/antioxidant. The assay is based on a protocol originally detailed in Brand-Williams, W. et al., 1995, Use of a Free Radical Method to Evaluate Antioxidant Activity, Lebensm. Wiss. Technol., 28:25-30, with further modifications described in L. R. Fukumoto and G. Mazza, 2000, Assessing Antioxidant and Prooxidant Activities of Phenolic Compounds, J. Agric. Food Chem., 48:3597-3604.
The antioxidant assay was performed using Perkin-Elmer 96-well, clear-bottom, black-wall plates (ordered from E & K Scientific Products) and a Tecan Safire absorbance plate reader. The positive controls were Trolox (6-hydroxy-2,5,7,8-tetramethylchromane-2-carboxylic acid, Sigma-Aldrich), BHA (2(3)-tert-butylhydroquinone monomethyl ether, Sigma-Aldrich), PBN (C-(phenyl)-N-(tert-butyl)nitrone, Sigma-Aldrich) and S-PBN (C-(2-sulfophenyl)-N-(tert-butyl)nitrone, sodium salt, prepared according to E. G. Janzen and R. V. Shetty, 1979, Tetrahedron Lett., 35: 3229-32), and the negative control (i.e., vehicle) was DMSO. In brief, 2 μL of 100×DMSO stock of the desired final concentration of each control or nitrone compound to be tested in the same batch was added to a separate well. To each well was then added 198 μL of a freshly made 50 μM DPPH (Sigma-Aldrich) solution in 80% methanol using a multi-channel pipette. The absorbance was immediately read on the plate reader at 520 nm and thereafter read periodically to assess kinetics until all reactions reached completion (i.e., steady state). Since the steady-state point was 24 h, the assay results are shown from the 24 h time point. The absorbance at 520 nm (OD) was plotted versus the concentrations of the controls and nitrone compounds to assess dose-response and interpolate the EC50 values of the controls and test compounds.
(In general: Loss of DPPH colour is used to gauge radical scavenging.)
Consider `COC(=O)c1[nH]c2ccccc2c1/C=[N+](\[O-])C(C)(C)C` [Example 38, N-(tert-Butyl)-C-[2-(methoxycarbonyl)-1H-indol-3-yl]nitrone], for which the EC50 is greater than 1000 µM. Consider `O=[N+]([O-])c1ccc(SC2CCCC2)c(/C=[N+](\[O-])C2CCCCC2)c1` [Example 30, N-Cyclohexyl-C-[2-(cyclopentylthio)-5-nitrophenyl]nitrone], for which the EC50 is greater than 1000 µM. With `CC(C)(C)[N+]([O-])=Cc1ccccc1` [PBN, C-(phenyl)-N-(tert-butyl)nitrone, reference compound] the figure was greater than 1000 µM; with `CC(C)(C)C(=O)Nc1cccc(/C=[N+](\[O-])C2CCCCC2)n1` [Example 52, N-Cyclohexyl-C-[6-(2,2-dimethylpropanamido)pyridin-2-yl]nitrone], 500 to 1000 µM. Take `CC(C)Sc1ccccc1/C=[N+](\[O-])C(C)(C)C` [Example 34, N-(tert-Butyl)-C-[2-(isopropylthio)phenyl]nitrone]: the EC50 was greater than 1000 µM.

With `COC(=O)c1c(/C=[N+](\[O-])C(C)(C)C)cc(OC)cc1OC` [Example 4, N-(tert-Butyl)-C-[2-(methoxycarbonyl)-3,5-dimethoxyphenyl]nitrone], the EC50 lay within 100 to 500 µM.

As for `CCSc1ccccc1/C=[N+](\[O-])C(C)(C)C` [Example 33, N-(tert-Butyl)-C-[2-(ethylthio)phenyl]nitrone], the EC50 was greater than 1000 µM.

As to `CC(C)(C)/[N+]([O-])=C/c1cccnc1N1CCOCC1` [Example 46, N-(tert-Butyl)-C-[2-(1-morpholino)pyridin-3-yl]nitrone], the EC50 was greater than 1000 µM. With `[O-]/[N+](=C\c1cccnc1N1CCOCC1)C1CCCCC1` [Example 47, N-Cyclohexyl-C-[2-(1-morpholino)pyridin-3-yl]nitrone] the figure was greater than 1000 µM.
